PubChem BioAssay (NCI)
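Each compound was tested at five concentrations against cells in 96-well plates for 48 hours. TGI denotes the concentration required for complete inhibition of growth.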

Key:
Assay in all cases: NCI tumour cell line growth inhibition, 48 h
SK-OV-3 ovarian = test system: SK-OV-3 ovarian
UO-31 renal = test system: UO-31 renal
COLO 205 colon = test system: COLO 205 colon
RXF 393 renal = test system: RXF 393 renal
OVCAR-5 ovarian = test system: OVCAR-5 ovarian
OVCAR-3 ovarian = test system: OVCAR-3 ovarian
U251 CNS = test system: U251 CNS
CAKI-1 renal = test system: CAKI-1 renal
TK-10 renal = test system: TK-10 renal
EKVX NSCLC = test system: EKVX NSCLC
SF-295 CNS = test system: SF-295 CNS
HOP-62 NSCLC = test system: HOP-62 NSCLC
PC-3 prostate = test system: PC-3 prostate
A498 renal = test system: A498 renal
RPMI-8226 leukemia = test system: RPMI-8226 leukemia
HCC-2998 colon = test system: HCC-2998 colon
MDA-MB-435 = test system: MDA-MB-435
HT29 colon = test system: HT29 colon
OVCAR-4 ovarian = test system: OVCAR-4 ovarian
MDA-N = test system: MDA-N
HL-60(TB) leukemia = test system: HL-60(TB) leukemia
SR leukemia = test system: SR leukemia
NCI-H23 lung = test system: NCI-H23 lung
K-562 leukemia = test system: K-562 leukemia
ACHN renal = test system: ACHN renal
T-47D breast = test system: T-47D breast
OVCAR-8 ovarian = test system: OVCAR-8 ovarian
MDA-MB-231 breast = test system: MDA-MB-231 breast
HOP-92 NSCLC = test system: HOP-92 NSCLC
UACC-62 melanoma = test system: UACC-62 melanoma
SK-MEL-28 melanoma = test system: SK-MEL-28 melanoma
MOLT-4 leukemia = test system: MOLT-4 leukemia
SF-539 CNS = test system: SF-539 CNS
IGROV1 ovarian = test system: IGROV1 ovarian
NCI-H522 lung = test system: NCI-H522 lung
HCT-15 colon = test system: HCT-15 colon
NCI-H226 lung = test system: NCI-H226 lung
786-0 renal = test system: 786-0 renal
MCF7 breast = test system: MCF7 breast
SW-620 colon = test system: SW-620 colon
CCRF-CEM leukemia = test system: CCRF-CEM leukemia
SNB-75 CNS = test system: SNB-75 CNS
UACC-257 melanoma = test system: UACC-257 melanoma
LOX IMVI melanoma = test system: LOX IMVI melanoma
SF-268 CNS = test system: SF-268 CNS
HCT-116 colon = test system: HCT-116 colon
DU-145 prostate = test system: DU-145 prostate
MALME-3M melanoma = test system: MALME-3M melanoma
NCI/ADR-RES ovarian = test system: NCI/ADR-RES ovarian
M14 melanoma = test system: M14 melanoma
SK-MEL-2 melanoma = test system: SK-MEL-2 melanoma
SNB-19 CNS = test system: SNB-19 CNS
A549 NSCLC = test system: A549 NSCLC
NCI-H460 lung = test system: NCI-H460 lung
SN12C renal = test system: SN12C renal
HS 578T breast = test system: HS 578T breast
SK-MEL-5 melanoma = test system: SK-MEL-5 melanoma
KM12 colon = test system: KM12 colon
BT-549 breast = test system: BT-549 breast

O=C1OCC2=C1C(c1ccc3c(c1)OCO3)c1cc3c(cc1O2)OCO3 (stereo not given)
TGI (SK-OV-3 ovarian): > 85.2 µM
TGI (UO-31 renal): > 85.6 µM
TGI (COLO 205 colon): 15.2 µM
TGI (RXF 393 renal): 7.6 µM
TGI (OVCAR-5 ovarian): > 100 µM
TGI (OVCAR-3 ovarian): > 21.3 µM
TGI (U251 CNS): > 100 µM
TGI (CAKI-1 renal): > 100 µM
TGI (TK-10 renal): > 100 µM
TGI (EKVX NSCLC): > 100 µM
TGI (SF-295 CNS): > 72.2 µM
TGI (HOP-62 NSCLC): > 100 µM
TGI (PC-3 prostate): > 63.7 µM
TGI (A498 renal): 42.8 µM
TGI (RPMI-8226 leukemia): 10.5 µM
TGI (HCC-2998 colon): 59.3 µM
TGI (MDA-MB-435): 0.323 µM
TGI (HT29 colon): 3.54 µM
TGI (OVCAR-4 ovarian): > 100 µM
TGI (MDA-N): 0.368 µM
TGI (HL-60(TB) leukemia): 0.365 µM
TGI (SR leukemia): 5.19 µM
TGI (NCI-H23 lung): > 100 µM
TGI (K-562 leukemia): 28.8 µM
TGI (ACHN renal): > 100 µM
TGI (T-47D breast): > 100 µM
TGI (OVCAR-8 ovarian): 68.1 µM
TGI (MDA-MB-231 breast): > 100 µM
TGI (HOP-92 NSCLC): > 100 µM
TGI (UACC-62 melanoma): > 72.6 µM
TGI (SK-MEL-28 melanoma): > 59.1 µM
TGI (MOLT-4 leukemia): > 49.1 µM
TGI (SF-539 CNS): 2.81 µM
TGI (IGROV1 ovarian): > 100 µM
TGI (NCI-H522 lung): 0.533 µM
TGI (HCT-15 colon): > 79.1 µM
TGI (NCI-H226 lung): > 100 µM
TGI (786-0 renal): > 30.1 µM
TGI (MCF7 breast): > 100 µM
TGI (SW-620 colon): > 100 µM
TGI (CCRF-CEM leukemia): > 30.7 µM
TGI (SNB-75 CNS): 11.9 µM
TGI (UACC-257 melanoma): > 100 µM
TGI (LOX IMVI melanoma): > 100 µM
TGI (SF-268 CNS): > 100 µM
TGI (HCT-116 colon): 41.5 µM
TGI (DU-145 prostate): > 58.8 µM
TGI (MALME-3M melanoma): > 100 µM
TGI (NCI/ADR-RES ovarian): 2.03 µM
TGI (M14 melanoma): 11.4 µM
TGI (SK-MEL-2 melanoma): > 100 µM
TGI (SNB-19 CNS): > 27.2 µM
TGI (A549 NSCLC): > 100 µM
TGI (NCI-H460 lung): > 100 µM
TGI (SN12C renal): > 100 µM
TGI (HS 578T breast): 20.8 µM
TGI (SK-MEL-5 melanoma): > 100 µM
TGI (KM12 colon): > 100 µM

O=c1c2cc(I)ccc2nc(Sc2ccc([N+](=O)[O-])cc2[N+](=O)[O-])n1Cc1ccccc1
TGI (SK-OV-3 ovarian): > 56.8 µM
TGI (UO-31 renal): 4.13 µM
TGI (COLO 205 colon): 17.2 µM
TGI (RXF 393 renal): 12.4 µM
TGI (OVCAR-5 ovarian): 22.7 µM
TGI (OVCAR-3 ovarian): 4.87 µM
TGI (U251 CNS): 13.2 µM
TGI (CAKI-1 renal): 24.7 µM
TGI (TK-10 renal): 20.7 µM
TGI (EKVX NSCLC): 17.4 µM
TGI (SF-295 CNS): 35.3 µM
TGI (HOP-62 NSCLC): 12.3 µM
TGI (PC-3 prostate): 13.8 µM
TGI (A498 renal): 21.3 µM
TGI (RPMI-8226 leukemia): > 20.1 µM
TGI (HCC-2998 colon): 11.1 µM
TGI (MDA-MB-435): 5.35 µM
TGI (HT29 colon): 13.6 µM
TGI (OVCAR-4 ovarian): 15.6 µM
TGI (MDA-N): 3.89 µM
TGI (HL-60(TB) leukemia): 5.5 µM
TGI (SR leukemia): > 100 µM
TGI (NCI-H23 lung): 14.2 µM
TGI (K-562 leukemia): > 100 µM
TGI (ACHN renal): 26.1 µM
TGI (OVCAR-8 ovarian): 4.58 µM
TGI (MDA-MB-231 breast): 16.9 µM
TGI (HOP-92 NSCLC): 8.56 µM
TGI (UACC-62 melanoma): 7.24 µM
TGI (SK-MEL-28 melanoma): 35.2 µM
TGI (MOLT-4 leukemia): > 100 µM
TGI (SF-539 CNS): 4.09 µM
TGI (IGROV1 ovarian): 6.42 µM
TGI (BT-549 breast): 9.46 µM
TGI (NCI-H522 lung): 2.57 µM
TGI (HCT-15 colon): 3.82 µM
TGI (NCI-H226 lung): 10.3 µM
TGI (786-0 renal): 2.25 µM
TGI (MCF7 breast): 5.59 µM
TGI (SW-620 colon): > 100 µM
TGI (SNB-75 CNS): 16.7 µM
TGI (UACC-257 melanoma): 15.4 µM
TGI (LOX IMVI melanoma): 2.89 µM
TGI (SF-268 CNS): 3.77 µM
TGI (HCT-116 colon): 2.71 µM
TGI (DU-145 prostate): 12.7 µM
TGI (MALME-3M melanoma): 17.1 µM
TGI (NCI/ADR-RES ovarian): 5.44 µM
TGI (M14 melanoma): 5.31 µM
TGI (SK-MEL-2 melanoma): 3.73 µM
TGI (SNB-19 CNS): 20.4 µM
TGI (A549 NSCLC): > 85 µM
TGI (NCI-H460 lung): 29 µM
TGI (SN12C renal): 2.95 µM
TGI (HS 578T breast): > 36.1 µM
TGI (SK-MEL-5 melanoma): 17.8 µM
TGI (KM12 colon): > 31.2 µM
